According to publication PMC2784364, “VX-166: a novel potent small molecule caspase inhibitor as a potential therapy for sepsis” (Critical Care, 2009):
Entries after “also recorded” stand apart in the source; their conditions may differ.

Legend:
Jurkat cells [1] = experiment: TNF-α/cycloheximide induced apoptosis in Jurkat cells, Annexin V; assay type: cell-based; settings: Human Jurkat cell line/Annexin V, n = 4, read-out: IC50, inhibition of apoptosis
Experimental: (§1) Jurkat cells were obtained from LGC Standards (Teddington, UK) and were grown in RPMI 1640, 10% FCS, 2 mM L-glutamine, 100 U/ml penicillin and 0.1 mg/ml streptomycin (all from Sigma Aldrich Ltd., Poole, UK) at 37°C in 5% CO2/95% humidity. Receptor- or stress-mediated apoptosis (2 × 10^5 cells/ml) was induced by addition of either anti-Fas antibody CH-11 (10 ng/ml, Millipore UK Ltd., Watford, UK), TNF-α (20 ng/ml, R&D Systems, Abingdon, UK) with cycloheximide (112 ng/ml, Sigma Aldrich Ltd., Poole, UK) or staurosporine (350 ng/ml, Sigma Aldrich Ltd., Poole, UK). VX-166 was diluted into DMSO (10 mM), further diluted in media and added at a range of concentrations. Cells were then incubated for 18 hours. Apoptotic cells were then labelled with Cy5-conjugated Annexin-V (BD Biosciences, Oxford, UK) and detected using a FMAT™ 8100 Fluorimetric Microassay Technology Reader (Applied Biosystems, Warrington, UK). For the experiments using anti-Fas antibody, apoptosis was additionally measured using a Cell Death Detection ELISA kit (Roche Diagnostics Ltd., Lewes, UK) following the manufacturer's instructions.

[2] = CLP rat, plasma endotoxin by LAL kit; assay type: in vivo; settings: 20 hours, 25 mg/ml pump, n = 10, P < 0.05
Experimental: CLP studies were performed in accordance with the National Institutes of Health guidelines for the use of experimental animals and were approved by the Institutional Animal Care and Use Committee of the Feinstein Institute for Medical Research. Adult male Sprague-Dawley rats (weighing 275 to 325 g, Charles River Laboratories, Wilmington, MA, USA) were fasted overnight then anaesthetised with isoflurane. The caecum was exposed via a 2 cm midline incision. It was ligated just distal to the ileocaecal valve, then punctured twice with an 18-gauge needle and gently squeezed to release a small amount of faecal material to ensure patency of the perforation sites before the abdominal incision was closed. Sham-operated rats underwent the same procedure with the exception that the caecum was neither ligated nor punctured. […]
Blood samples were centrifuged at 1500 g for 15 minutes at 4°C, the plasma was removed and stored at -80°C until analysis. Plasma IL-1β levels were determined by ELISA (R&D Systems Inc., Minneapolis, MN, USA) following the manufacturer's instructions. Plasma endotoxin levels were determined using a Limulus amebocyte lysate (LAL) kit (Associates of Cape Cod, Inc., East Falmouth, MA, USA) according to the manufacturer's instruction. […] The optical density was determined at 405 nm using a spectrophotometer. The levels of endotoxin were then calculated and expressed as EU/ml.

Jurkat cells [3] = experiment: Anti-Fas induced apoptosis in Jurkat cells, DNA fragmentation (Cell Death Detection ELISA); assay type: cell-based; settings: Human Jurkat cell line/DNA fragmentation, n = 4, read-out: IC50, inhibition of apoptosis
Experimental: as §1

[4] = Counterscreening panel (MDS Pharma Services); settings: 5 μM, data not shown
Experimental: Active recombinant caspase-1, -3, -4, -7 and -8 were prepared as described previously. Caspase-2 was purchased from Biomol (Exeter, UK), caspase-6 from BD Biosciences (Oxford, UK), caspase-9 from Europa Bioproducts Ltd. (Cambridge, UK) and caspase-10 from Chemicon International Inc. (Harrow, UK). Cathepsin B and granzyme B were purchased from Merck Biosciences Ltd. (Nottingham, UK). Fluorogenic protease substrates were purchased from Bachem Ltd. (St. Helens, UK). All reactions were carried out at 37°C using a Molecular Devices (Wokingham, UK) Gemini plate-reader at 460 nm (excitation wavelength of 390 nm). Caspase inhibition assays were conducted, with minor modifications, as described by Margolin and colleagues. Irreversible kinetics were analysed by calculations of second-order inactivation rate constants (k) using GraphPad (La Jolla, CA, USA) Prism 4.0 software. A larger number for an inactivation rate constant indicates a greater degree of inactivation. To determine the inhibitory effect on cathepsin B, 4.25 nM of the enzyme were added to 250 μM z-RR-AMC in 10 mM 2-morpholino-ethanesulfonic acid pH 6.0, 1 mM DTT, 1 mM EDTA and 0.03% Brij35 in the presence or absence of VX-166 and the reaction monitored continuously over 15 minutes. Granzyme B was assayed, with minor modifications, as described by Thornberry and colleagues. […]

Q: For `CCC(C(=O)NC(CC(=O)O)C(=O)COc1c(F)c(F)cc(F)c1F)n1cccc(NC(=O)OC)c1=O` (stereo not shown) [VX-166], which IC50 (Jurkat cells [1]) is on record?
A: 120 ± 50 nM

Q: And the “plasma endotoxin level vs vehicle CLP” value [2]?
A: reduced plasma endotoxin levels; also recorded: reduced the level of endotoxin

Q: And the IC50 (Jurkat cells [3])?
A: 45 ± 7 nM

Q: And the “cross-reactivity in panel of 83 enzymes, ion channels and receptors (28 proteases)” value [4]?
A: No significant cross-reactivity
